Data on two compounds can be found in BindingDB's records for doi:10.1016/j.bmcl.2018.07.042 (Takeda Pharmaceutical, 2018).

The nature of the assay: Inhibition of human CCR6 expressed in CHO cells assessed as decrease in human CCL20-dependent cell migration incubated for 4 hrs by Diff-Quik staining based assay.

SMILES strings stand for the structures.

For orientation: IC50 means the concentration that gives 50% inhibition. `N#Cc1ccc(NC2CCN(S(=O)(=O)c3ccc(-c4ccccc4)cc3)CC2)nc1`: the half-maximal inhibitory concentration (IC50) is 240 nM.

Take `Cc1ccc(S(=O)(=O)N2CCC(Nc3ccc(C#N)cn3)CC2)cc1`: the IC50 was 1400 nM.
